From ChEMBL document CHEMBL5696442, “Discovery of type II inhibitors of TGFβ-activated kinase 1 (TAK1) and mitogen-activated protein kinase kinase kinase kinase 2 (MAP4K2)” (J Med Chem, 2015)

How the values were obtained:
Type in all cases: cell-based
[1] = target: p38 delta/gamma (Homo sapiens) (UniProt O15264+P53778); experiment: Inhibition of p38delta/gamma Lys2 labeling site in human A-375 cells at 5 uM by KiNativ Profiling analysis relative to control
[2] = target: Tyrosine-protein kinase Fyn (Homo sapiens) (UniProt P06241); experiment: Inhibition of FYN ACT labeling site in human A-375 cells at 5 uM by KiNativ Profiling analysis relative to control
Tyrosine-protein kinase Fyn (Homo sapiens), sequence (P06241 2-537 limits assumed): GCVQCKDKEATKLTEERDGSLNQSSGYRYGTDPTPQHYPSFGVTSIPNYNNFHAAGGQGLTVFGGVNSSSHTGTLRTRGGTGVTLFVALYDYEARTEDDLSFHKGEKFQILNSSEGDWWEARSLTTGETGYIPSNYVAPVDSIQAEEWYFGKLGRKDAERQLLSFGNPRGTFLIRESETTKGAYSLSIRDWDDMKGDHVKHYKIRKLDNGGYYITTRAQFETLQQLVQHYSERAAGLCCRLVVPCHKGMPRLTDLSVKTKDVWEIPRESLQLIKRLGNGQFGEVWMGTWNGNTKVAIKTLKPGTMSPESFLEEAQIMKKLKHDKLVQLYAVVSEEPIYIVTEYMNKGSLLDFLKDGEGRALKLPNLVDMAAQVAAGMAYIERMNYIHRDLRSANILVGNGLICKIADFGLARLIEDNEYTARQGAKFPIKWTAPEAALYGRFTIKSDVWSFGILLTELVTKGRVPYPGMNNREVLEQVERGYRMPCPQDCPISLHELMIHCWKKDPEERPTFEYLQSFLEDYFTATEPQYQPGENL

[3] = target: T1, Serine/threonine-protein kinase NLK (Homo sapiens) (UniProt Q9UBE8); experiment: Inhibition of NLK Lys2 labeling site in human A-375 cells at 5 uM by KiNativ Profiling analysis relative to control
T1 sequence (whole entry): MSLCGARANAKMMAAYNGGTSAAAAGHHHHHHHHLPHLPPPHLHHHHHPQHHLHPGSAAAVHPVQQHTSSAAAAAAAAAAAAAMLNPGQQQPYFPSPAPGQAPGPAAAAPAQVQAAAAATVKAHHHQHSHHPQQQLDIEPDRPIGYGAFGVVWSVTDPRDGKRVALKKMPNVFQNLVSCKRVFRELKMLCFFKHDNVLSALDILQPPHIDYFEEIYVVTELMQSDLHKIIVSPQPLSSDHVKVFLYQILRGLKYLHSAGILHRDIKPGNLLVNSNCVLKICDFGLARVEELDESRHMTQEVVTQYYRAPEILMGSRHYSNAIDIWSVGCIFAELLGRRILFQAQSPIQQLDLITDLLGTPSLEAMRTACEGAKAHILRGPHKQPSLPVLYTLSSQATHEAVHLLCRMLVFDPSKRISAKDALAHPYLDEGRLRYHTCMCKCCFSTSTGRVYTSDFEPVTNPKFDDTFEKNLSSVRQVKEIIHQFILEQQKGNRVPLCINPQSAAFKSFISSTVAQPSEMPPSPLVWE

[4] = target: T2, Serine/threonine-protein kinase ULK3 (Homo sapiens) (UniProt Q6PHR2); experiment: Inhibition of ULK3 Lys2 labeling site in human A-375 cells at 5 uM by KiNativ Profiling analysis relative to control
T2 sequence (whole entry): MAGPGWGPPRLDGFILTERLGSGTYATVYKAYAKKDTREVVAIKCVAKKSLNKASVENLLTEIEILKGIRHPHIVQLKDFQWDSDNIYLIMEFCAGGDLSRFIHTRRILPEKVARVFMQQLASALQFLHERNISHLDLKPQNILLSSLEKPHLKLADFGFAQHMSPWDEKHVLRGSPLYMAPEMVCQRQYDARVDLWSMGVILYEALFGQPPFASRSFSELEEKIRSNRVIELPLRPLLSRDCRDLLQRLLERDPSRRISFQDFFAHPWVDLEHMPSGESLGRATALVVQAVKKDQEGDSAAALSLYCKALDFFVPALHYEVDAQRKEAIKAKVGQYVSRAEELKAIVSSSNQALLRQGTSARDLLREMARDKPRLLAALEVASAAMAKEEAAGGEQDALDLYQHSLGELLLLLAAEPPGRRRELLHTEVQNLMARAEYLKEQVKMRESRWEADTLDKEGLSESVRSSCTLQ

[5] = target: T3, Serine/threonine-protein kinase TAO2 (Homo sapiens) (UniProt Q9UL54); experiment: Inhibition of TAO2 Lys2 labeling site in human A-375 cells at 0.5 uM by KiNativ Profiling analysis relative to control
T3 sequence (whole entry): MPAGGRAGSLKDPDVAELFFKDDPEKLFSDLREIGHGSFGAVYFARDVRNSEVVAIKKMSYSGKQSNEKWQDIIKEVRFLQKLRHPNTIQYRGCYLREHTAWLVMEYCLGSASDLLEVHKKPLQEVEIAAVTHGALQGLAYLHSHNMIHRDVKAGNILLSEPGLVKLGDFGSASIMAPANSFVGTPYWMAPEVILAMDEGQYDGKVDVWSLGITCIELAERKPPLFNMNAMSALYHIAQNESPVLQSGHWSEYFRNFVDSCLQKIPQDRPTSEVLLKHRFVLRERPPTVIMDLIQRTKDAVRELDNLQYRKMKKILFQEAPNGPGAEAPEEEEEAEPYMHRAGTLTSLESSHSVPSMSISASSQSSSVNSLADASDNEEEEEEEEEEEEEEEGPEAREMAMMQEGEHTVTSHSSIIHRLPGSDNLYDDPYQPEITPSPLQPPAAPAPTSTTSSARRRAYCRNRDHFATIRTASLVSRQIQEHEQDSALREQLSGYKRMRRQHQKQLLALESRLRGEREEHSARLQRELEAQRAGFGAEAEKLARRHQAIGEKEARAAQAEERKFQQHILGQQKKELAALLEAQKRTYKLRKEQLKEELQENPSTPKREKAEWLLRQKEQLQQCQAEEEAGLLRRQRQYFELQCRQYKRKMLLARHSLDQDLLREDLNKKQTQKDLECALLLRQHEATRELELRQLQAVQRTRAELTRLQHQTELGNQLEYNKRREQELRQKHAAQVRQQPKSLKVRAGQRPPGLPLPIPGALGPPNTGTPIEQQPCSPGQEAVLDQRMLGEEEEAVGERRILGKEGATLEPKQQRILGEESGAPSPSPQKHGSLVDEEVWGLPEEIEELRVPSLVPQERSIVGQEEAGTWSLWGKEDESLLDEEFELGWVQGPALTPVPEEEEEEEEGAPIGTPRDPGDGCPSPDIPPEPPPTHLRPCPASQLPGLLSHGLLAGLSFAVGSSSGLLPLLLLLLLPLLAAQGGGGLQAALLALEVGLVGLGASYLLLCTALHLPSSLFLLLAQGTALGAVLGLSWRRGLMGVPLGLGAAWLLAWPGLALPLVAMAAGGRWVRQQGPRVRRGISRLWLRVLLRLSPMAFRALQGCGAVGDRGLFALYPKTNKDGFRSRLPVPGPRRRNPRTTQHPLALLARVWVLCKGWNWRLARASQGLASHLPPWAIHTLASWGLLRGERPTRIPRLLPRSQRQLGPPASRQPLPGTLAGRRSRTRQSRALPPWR

[6] = target: Misshapen-like kinase 1 (Homo sapiens) (UniProt Q8N4C8); experiment: Inhibition of ZC3/MINK Lys2 labeling site in human A-375 cells at 0.05 uM by KiNativ Profiling analysis relative to control
Misshapen-like kinase 1 (Homo sapiens), sequence (Q8N4C8 whole entry, looked up): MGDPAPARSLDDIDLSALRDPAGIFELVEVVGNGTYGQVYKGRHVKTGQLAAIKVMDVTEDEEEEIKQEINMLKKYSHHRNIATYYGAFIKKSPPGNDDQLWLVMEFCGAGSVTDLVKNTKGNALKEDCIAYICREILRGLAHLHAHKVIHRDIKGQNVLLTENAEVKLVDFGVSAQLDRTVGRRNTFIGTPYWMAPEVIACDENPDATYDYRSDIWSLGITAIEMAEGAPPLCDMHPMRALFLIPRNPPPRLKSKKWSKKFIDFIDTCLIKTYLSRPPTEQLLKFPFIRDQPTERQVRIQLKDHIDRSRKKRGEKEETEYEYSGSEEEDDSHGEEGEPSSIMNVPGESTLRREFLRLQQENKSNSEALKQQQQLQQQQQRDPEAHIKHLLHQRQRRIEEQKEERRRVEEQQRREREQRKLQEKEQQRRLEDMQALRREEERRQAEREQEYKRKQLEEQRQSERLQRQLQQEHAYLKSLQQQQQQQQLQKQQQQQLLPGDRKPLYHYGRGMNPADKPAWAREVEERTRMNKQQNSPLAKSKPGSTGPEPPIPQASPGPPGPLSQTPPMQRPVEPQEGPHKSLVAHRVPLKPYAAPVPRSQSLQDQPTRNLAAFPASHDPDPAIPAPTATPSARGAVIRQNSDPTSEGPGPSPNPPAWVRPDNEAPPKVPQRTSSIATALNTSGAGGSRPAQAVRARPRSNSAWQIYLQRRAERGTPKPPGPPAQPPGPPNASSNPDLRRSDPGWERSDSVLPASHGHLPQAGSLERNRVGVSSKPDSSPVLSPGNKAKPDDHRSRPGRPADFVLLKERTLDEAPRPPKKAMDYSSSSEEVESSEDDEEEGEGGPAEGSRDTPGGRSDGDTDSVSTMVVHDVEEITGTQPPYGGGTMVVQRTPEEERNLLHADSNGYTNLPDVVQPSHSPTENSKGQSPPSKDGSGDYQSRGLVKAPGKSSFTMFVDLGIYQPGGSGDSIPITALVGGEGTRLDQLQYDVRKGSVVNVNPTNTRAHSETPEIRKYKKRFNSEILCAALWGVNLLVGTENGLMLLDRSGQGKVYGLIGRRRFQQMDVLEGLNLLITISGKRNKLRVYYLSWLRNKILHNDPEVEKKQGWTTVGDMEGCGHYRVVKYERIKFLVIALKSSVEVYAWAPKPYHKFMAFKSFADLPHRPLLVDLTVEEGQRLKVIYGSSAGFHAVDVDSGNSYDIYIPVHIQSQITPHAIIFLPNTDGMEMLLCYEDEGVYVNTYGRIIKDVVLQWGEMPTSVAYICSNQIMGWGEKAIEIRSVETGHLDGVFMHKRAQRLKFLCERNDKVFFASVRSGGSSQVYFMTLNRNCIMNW

Row | Structure (SMILES) | inhibition [1] [%] | inhibition [2] [%] | inhibition [3] [%] | inhibition [4] [%] | inhibition [5] [%] | inhibition [6] [%]
1 | CCN1CCN(Cc2ccc(NC(=O)c3ccc(C)c(Oc4ccnc5[nH]ccc45)c3)cc2C(F)(F)F)CC1 | > 94 | 89.6 | 18.9 | 44.8 | 42.8 | 32.6
2 | CCN1CCN(Cc2ccc(NC(=O)c3ccc(C)c(/C=C/c4cnc5[nH]ccc5c4OC)c3)cc2C(F)(F)F)CC1 | 52.7 | > 99 | 66.6 | 52.5 | 37.1 | 19.5
